Measured values published in patent US20240239735A1, “ACID ADDITION SALT OF ROCK INHIBITOR, AND CRYSTAL FORM, COMPOSITION AND PHARMACEUTICAL USE THEREOF” (WUHAN LL SCIENCE AND TECHNOLOGY DEVELOPMENT CO., LTD., priority 2021, published 2024).
In brackets after ≈: the same amount, converted by molar mass. Like-named read-outs stand apart in the source and are kept apart here.

Assays:
[1] = Hygroscopicity test by dynamic vapor sorption (DVS); type: physicochemical; conditions: for DVS weight gain (Wt. gain %): 25° C.; for Hygroscopicity: DVS, assessment in words
Method: The sample was subjected to water adsorption/desorption tests using a Vsorp (ProUmid GmbH & Co. KG, Germany) water adsorption analyzer. The sample was placed in a tared sample tray, and the change in the sample mass with humidity (0-90% RH) at 25° C. was recorded.

[2] = Solubility test in biologically relevant media at 37° C. (HPLC, pH, XRPD of filter cake); type: physicochemical
Method: (§1) The instrument used for HIPLC analysis was Agilent TIPLC 1260 series.
The suspension was incubated by shaking on a shaker at 100 rpm at 37° C. 1 mL of the dispersion was taken at 0.5 h, 2 h, and 24 h, and filtered. The filtrate was tested for the solubility by HPLC and for the pH value by a pH meter. The filter cake was characterized for the crystal form by XRPD.

[3] = Solid state stability test (HPLC purity, XRPD); type: physicochemical; conditions: for Initial purity (Area %): 0 weeks; for Initial purity (Area %) / Purity (Area %): 265 nm; for Physical and chemical stability: 60° C./sealed and 40° C./75% RH open
Method: as §1
The samples after being stored 0 days, 1 week, and 2 weeks were taken and each dissolved in a diluent to prepare about 1.0 mg/mL solution, which was tested for chemical stability by HPLC. The solid sample after being stored for 1 week or 2 weeks was tested for physical stability by XRPD.

[4] = Pharmacokinetic study in SD rats, intragastric administration; type: in vivo; conditions: for Cmax: compound A in plasma; for Exposure of compound A relative to administration of the free base: same dose
Method: In the experiment, 12 SD rats (purchased from Beijing Vital River Laboratory Animal Technology Co., Ltd.) weighing 180-280 g, half male and female, were used. The animals were randomly divided into four groups of 3 animals each, with female rats in the first and third groups and male rats in the second and fourth groups.
Blood was collected from the orbital venous plexus of rats at various time points (0.167 h, 0.5 h, 1 h, 2 h, 3 h, 4 h, 6 h, 9 h, 12 h, and 24 h) after administration. The concentration of compound A in the plasma was determined.
Data will be analyzed by a non-compartmental model using WinNonlin (version 5.2.1 Pharsight, Mountain View, CA) to obtain PK parameters (parameters selected for different routes of administration, such as C0, Cmax, Tmax, AUC0-last, AUCinf, T1/2, CL, and Vz).

[5] = Hygroscopicity test by dynamic vapor sorption (DVS); type: physicochemical; conditions: from 0.0% RH to 95% RH
[6] = SGF medium, 0.5 h, rounded values
[7] = female SD rats, 20 mg/kg in 5% TPGS, 20 mg/kg
[8] = female, SD, rat, plasma, po, 20 mg/kg, female SD rats, 20 mg/kg in 5% TPGS
[9] = male SD rats, 20 mg/kg in 5% TPGS, 20 mg/kg
[10] = male, SD, rat, plasma, po, 20 mg/kg, male SD rats, 20 mg/kg in 5% TPGS

## COc1cccc(CNC(=O)N2CCc3cc(-c4c[nH]nc4N)c(F)cc32)c1 [Free base crystal form II, 5-(3-amino-1H-pyrazol-4-yl)-6-fluoro-N-(3-methoxybenzyl)indoline-1-carboxamide]
[1]
  XRPD pattern / crystal form before and after the DVS test: crystal form remained unchanged
  Hygroscopicity: slightly hygroscopic
[1]; 0.0% RH to 80% RH
  DVS weight gain (Wt. gain %): 1.3%
[1]; 0.0% RH to 90% RH
  DVS weight gain (Wt. gain %): 1.5%
[2]; FaSSIF, 37° C., 0.5 h
  Solubility: 0.00824 mg/mL (≈ 21.6 µM)
[2]; FaSSIF, 37° C., 2 h
  Solubility: 0.00514 mg/mL (≈ 13.5 µM)
[2]; FaSSIF, 37° C., 24 h
  Solubility: 0.00644 mg/mL (≈ 16.9 µM)
  XRPD (crystal form of filter cake): Remains unchanged
[2]; FaSSIF, 37° C., 24 h, listed as free base crystal form II
  XRPD (crystal form of filter cake): remained unchanged
[2]; FaSSIF, 24 h (0 h: 6.50)
  pH of filtrate: 6.49
[2]; FeSSIF, 37° C., 0.5 h
  Solubility: 0.03338 mg/mL (≈ 87.5 µM)
[2]; FeSSIF, 37° C., 2 h
  Solubility: 0.04287 mg/mL (≈ 112 µM)
[2]; FeSSIF, 37° C., 24 h
  Solubility: 0.04868 mg/mL (≈ 128 µM)
  XRPD (crystal form of filter cake): Remains unchanged
[2]; FeSSIF, 37° C., 24 h, listed as free base crystal form II
  XRPD (crystal form of filter cake): remained unchanged
[2]; FeSSIF, 24 h (0 h: 5.00)
  pH of filtrate: 4.99
[2]; [6]
  Solubility: 1.0 mg/mL (≈ 2620 µM)
[2]; SGF, 37° C., 0.5 h
  Solubility: 1.01 mg/mL (≈ 2650 µM)
[2]; SGF, 37° C., 2 h
  Solubility: 1.027 mg/mL (≈ 2690 µM)
[2]; SGF, 37° C., 24 h
  Solubility: 1.167 mg/mL (≈ 3060 µM)
  XRPD (crystal form of filter cake): Remains unchanged
[2]; SGF, 37° C., 24 h, listed as free base crystal form II
  XRPD (crystal form of filter cake): remained unchanged
[2]; SGF, 24 h (0 h: 1.20)
  pH of filtrate: 1.29
[3]; HPLC method of 7-day test
  Initial purity (Area %): 98.62 Area %
[3]; HPLC method of 14-day test
  Initial purity (Area %): 99.83 Area %
[3]; 1 week, 40° C./75% RH open
  Purity (Area %): 98.62 Area %
[3]; 1 week, 60° C./sealed
  Purity (Area %): 98.64 Area %
[3]; 2 weeks, 40° C./75% RH open
  Purity (Area %): 99.83 Area %
[3]; 2 weeks, 60° C./sealed
  Purity (Area %): 99.83 Area %
[3]; one week
  Physical and chemical stability: physically and chemically stable
[3]; two weeks
  Physical and chemical stability: physically and chemically stable
[4]; [7]
  AUClast: 14.778 ± 3.318 µg·h/mL
[4]; [8]
  AUC(0-inf): 18.16 ± 0.15 µg·h/mL
  half-life: 2.88 ± 0.46 h
[4]; female, SD, rat, plasma, po, 20 mg/kg, female SD rats, 20 mg/kg in 5% TPGS, read-out: Cmax
  Cmax: 3.62 ± 0.321 µg/mL
[4]; female, SD, rat, plasma, po, 20 mg/kg, female SD rats, 20 mg/kg in 5% TPGS, read-out: Tmax
  Tmax: 0.67 ± 0.17 h
[4]; [9]
  AUCinf: 19.79 ± 2.233 µg·h/mL
  AUClast: 19.604 ± 2.132 µg·h/mL
  T1/2: 3.33 ± 0.40 h
  Tmax: 1.00 ± 0.00 h
  Cmax: 3.297 ± 0.676 µg/mL

## COc1cccc(CNC(=O)N2CCc3cc(-c4c[nH]nc4N)c(F)cc32)c1 [Fumarate crystal form II]
[1]
  XRPD pattern / crystal form before and after the DVS test: crystal form remained unchanged
  Hygroscopicity: non-hygroscopic
[2]; FaSSIF, 37° C., 24 h
  Solubility: 0.00028 mg/mL
[2]; FaSSIF, 24 h (0 h: 6.50)
  pH of filtrate: 6.2
[2]; FeSSIF, 37° C., 24 h
  Solubility: 0.13292 mg/mL
[2]; FeSSIF, 24 h (0 h: 5.00)
  pH of filtrate: 4.9
[2]; SGF, 37° C., 24 h
  Solubility: 1.42524 mg/mL
  XRPD (crystal form of filter cake): Remains unchanged
[2]; SGF, 24 h (0 h: 1.20)
  pH of filtrate: 1.2
[3]; HPLC method of 7-day test
  Initial purity (Area %): 99.30 Area %
[3]; 1 week, 40° C./75% RH open
  Purity (Area %): 99.20 Area %
[3]; 1 week, 60° C./sealed
  Purity (Area %): 99.20 Area %
[5]
  DVS water absorbed: about 0.2%

## COc1cccc(CNC(=O)N2CCc3cc(-c4c[nH]nc4N)c(F)cc32)c1 [Fumarate crystal form I]
[1]
  XRPD pattern / crystal form before and after the DVS test: crystal form remained unchanged
  Hygroscopicity: non-hygroscopic
[1]; 0.0% RH to 80% RH
  DVS weight gain (Wt. gain %): <0.2%
[1]; 0.0% RH to 80% RH, listed as fumarate crystal form I
  DVS weight gain (Wt. gain %): < 0.2%
[1]; 0.0% RH to 90% RH
  DVS weight gain (Wt. gain %): <0.2%
[1]; 0.0% RH to 90% RH, listed as fumarate crystal form I
  DVS weight gain (Wt. gain %): < 0.2%
[2]; 0.5 h, FaSSIF and FeSSIF media
  Crystal form during the solubility test: dissociated into the free base crystal form II
[2]; 0.5 h, all three biologically relevant media
  Solubility relative to free base crystal form II: about twice
[2]; FaSSIF, 37° C., 0.5 h
  Solubility: 0.01219 mg/mL
[2]; FaSSIF, 37° C., 2 h
  Solubility: 0.00357 mg/mL
[2]; FaSSIF, 37° C., 24 h
  Solubility: 0.00425 mg/mL
[2]; FaSSIF, 24 h (0 h: 6.50)
  pH of filtrate: 5.96
[2]; FeSSIF, 37° C., 0.5 h
  Solubility: 0.1092 mg/mL
[2]; FeSSIF, 37° C., 2 h
  Solubility: 0.0753 mg/mL
[2]; FeSSIF, 37° C., 24 h
  Solubility: 0.06139 mg/mL
[2]; FeSSIF, 24 h (0 h: 5.00)
  pH of filtrate: 4.90
[2]; [6]
  Solubility: 1.9 mg/mL
[2]; SGF, 37° C., 0.5 h
  Solubility: 1.899 mg/mL
[2]; SGF, 37° C., 2 h
  Solubility: 2.135 mg/mL
[2]; SGF, 37° C., 24 h
  Solubility: 2.146 mg/mL
  XRPD (crystal form of filter cake): Trace solid
[2]; SGF, 24 h (0 h: 1.20)
  pH of filtrate: 1.29
[3]; HPLC method of 7-day test
  Initial purity (Area %): 99.85 Area %
[3]; HPLC method of 14-day test
  Initial purity (Area %): 99.73 Area %
[3]; 1 week, 40° C./75% RH open
  Purity (Area %): 99.85 Area %
[3]; 1 week, 60° C./sealed
  Purity (Area %): 99.86 Area %
[3]; 2 weeks, 40° C./75% RH open
  Purity (Area %): 99.74 Area %
[3]; 2 weeks, 60° C./sealed
  Purity (Area %): 99.75 Area %
[3]; one week
  Physical and chemical stability: physically and chemically stable
[3]; two weeks
  Physical and chemical stability: physically and chemically stable
[4]; [7]
  AUCinf: 33.018 ± 1.303 µg·h/mL
  AUClast: 32.884 ± 1.318 µg·h/mL
  T1/2: 3.01 ± 0.22 h
  Tmax: 0.83 ± 0.17 h
  Cmax: 6.357 ± 0.342 µg/mL
[4]; female rats
  Exposure of compound A relative to administration of the free base: 2.23 times
[4]; male rats
  Exposure of compound A relative to administration of the free base: 1.22 times
[4]; [10]
  AUC(0-inf): 24.1 ± 2.91 µg·h/mL
  AUC(0-t): 23.9 ± 2.93 µg·h/mL
  half-life: 3.44 ± 0.29 h
[4]; male, SD, rat, plasma, po, 20 mg/kg, male SD rats, 20 mg/kg in 5% TPGS, read-out: Cmax
  Cmax: 3.05 ± 0.198 µg/mL
[4]; male, SD, rat, plasma, po, 20 mg/kg, male SD rats, 20 mg/kg in 5% TPGS, read-out: Tmax
  Tmax: 0.67 ± 0.17 h

## COc1cccc(CNC(=O)N2CCc3cc(-c4c[nH]nc4N)c(F)cc32)c1 [Oxalate crystal form I]
[1]
  XRPD pattern / crystal form before and after the DVS test: crystal form remained unchanged
  Hygroscopicity: slightly hygroscopic
[1]; 0.0% RH to 80% RH
  DVS weight gain (Wt. gain %): 2.3%
[1]; 0.0% RH to 90% RH
  DVS weight gain (Wt. gain %): 3.1%
[2]; FaSSIF, 37° C., 0.5 h
  Solubility: 0.01934 mg/mL
[2]; FaSSIF, 37° C., 2 h
  Solubility: 0.01235 mg/mL
[2]; FaSSIF, 37° C., 24 h
  Solubility: 0.01341 mg/mL
  XRPD (crystal form of filter cake): partially dissociated into the free base crystal form II
[2]; FaSSIF, 24 h (0 h: 6.50)
  pH of filtrate: 5.94
[2]; FeSSIF, 37° C., 0.5 h
  Solubility: 0.09623 mg/mL
[2]; FeSSIF, 37° C., 2 h
  Solubility: 0.1941 mg/mL
[2]; FeSSIF, 37° C., 24 h
  Solubility: 0.2554 mg/mL
  XRPD (crystal form of filter cake): Remains unchanged
[2]; FeSSIF, 37° C., 24 h, listed as oxalate crystal form I
  XRPD (crystal form of filter cake): remained unchanged
[2]; FeSSIF, 24 h (0 h: 5.00)
  pH of filtrate: 4.94
[2]; [6]
  Solubility: 0.07 mg/mL
[2]; SGF, 37° C., 0.5 h
  Solubility: 0.07375 mg/mL
[2]; SGF, 37° C., 2 h
  Solubility: 0.1234 mg/mL
[2]; SGF, 37° C., 24 h
  Solubility: 0.1399 mg/mL
  XRPD (crystal form of filter cake): Remains unchanged
[2]; SGF, 37° C., 24 h, listed as oxalate crystal form I
  XRPD (crystal form of filter cake): remained unchanged
[2]; SGF, 24 h (0 h: 1.20)
  pH of filtrate: 1.24
[3]; HPLC method of 7-day test
  Initial purity (Area %): 96.97 Area %
[3]; 1 week, 40° C./75% RH open
  Purity (Area %): 96.97 Area %
[3]; 1 week, 60° C./sealed
  Purity (Area %): 96.13 Area %
[3]; one week
  Physical and chemical stability: degraded
